Here are results for 7 compounds from US9181305B2, “Exendin-4 peptide analogues” (SANOFI, priority 2012, dated 2015).

SMILES strings stand for the structures. *1 amine or outer side, *2 acyl side, *3 side chain or, on linkers, in order; H or OH if unused. Where a SMILES comes first, the peptide text is derived from it. Side-chain parts run from the residue outwards. [ ]: non-standard residue; d: D form. The star is where a group is joined. γGlu = O=C(O)[C@H](CCC(=O)[*:2])N[*:1]; Palmitoyl = CCCCCCCCCCCCCCCC(=O)*; Aib = CC(C)(N)C(=O)O

T1 sequence (P43220 24-463): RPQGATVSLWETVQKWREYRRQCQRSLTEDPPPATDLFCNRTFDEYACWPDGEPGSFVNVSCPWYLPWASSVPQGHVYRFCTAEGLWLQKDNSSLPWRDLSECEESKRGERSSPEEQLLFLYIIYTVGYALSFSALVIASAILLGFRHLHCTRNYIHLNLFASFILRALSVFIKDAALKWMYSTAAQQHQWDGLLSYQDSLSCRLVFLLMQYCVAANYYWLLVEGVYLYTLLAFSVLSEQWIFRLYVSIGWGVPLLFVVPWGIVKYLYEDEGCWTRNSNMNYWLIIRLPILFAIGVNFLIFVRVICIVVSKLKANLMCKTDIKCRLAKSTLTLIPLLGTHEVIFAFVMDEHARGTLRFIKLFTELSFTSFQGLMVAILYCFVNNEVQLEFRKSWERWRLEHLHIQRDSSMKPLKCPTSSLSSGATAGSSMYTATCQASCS

The assay addresses T1, human GLP-1 receptor (hGLP-1 R) (Homo sapiens, UniProt P43220).
T1 construct: expressed in transfected cells; host or cells: HEK-293
In words: cAMP response (HTRF) of HEK-293 cells stably expressing human GLP-1 receptor. It counts as cell-based. The settings on record: HEK-293 cells expressing human GLP-1 receptor, cAMP formation. The protocol: cAMP content of cells was determined using a kit from Cisbio Corp. (cat. no. 62AM4PEC) based on HTRF (Homogenous Time Resolved Fluorescence). For preparation, cells were split into T175 culture flasks and grown overnight to near confluency in medium (DMEM/10% FBS). Medium was then removed and cells washed with PBS lacking calcium and magnesium, followed by proteinase treatment with accutase (Sigma-Aldrich cat. no. A6964). Detached cells were washed and resuspended in assay buffer (1×HBSS; 20 mM HEPES, 0.1% BSA, 2 mM IBMX) and cellular density determined. […] For measurement, 25 μl of test compound in assay buffer was added to the wells, followed by incubation for 30 minutes at room temperature.
`CCCCCCCCCCCCCCCC(=O)N[C@@H](CCC(=O)NCCCC[C@H](NC(=O)[C@@H]1CCCN1C(=O)[C@@H]1CCCN1C(=O)[C@@H]1CCCN1C(=O)[C@H](C)NC(=O)CNC(=O)[C@H](CO)NC(=O)[C@H](CO)NC(=O)[C@@H]1CCCN1C(=O)CNC(=O)CNC(=O)[C@H](CC(N)=O)NC(=O)[C@H](CCCCN)NC(=O)[C@H](CC(C)C)NC(=O)[C@H](Cc1c[nH]c2ccccc12)NC(=O)[C@H](CCC(=O)O)NC(=O)[C@@H](NC(=O)[C@H](Cc1ccccc1)NC(=O)[C@H](CC(=O)O)NC(=O)[C@H](CCC(N)=O)NC(=O)[C@H](C)NC(=O)[C@H](CCCNC(=N)N)NC(=O)[C@H](CCCNC(=N)N)NC(=O)[C@H](CO)NC(=O)[C@H](CC(=O)O)NC(=O)[C@H](CCSC)NC(=O)[C@H](CCC(N)=O)NC(=O)[C@H](CCCCN)NC(=O)[C@H](CO)NC(=O)[C@H](CC(C)C)NC(=O)[C@H](CC(=O)O)NC(=O)[C@H](CO)NC(=O)[C@@H](NC(=O)[C@H](Cc1ccccc1)NC(=O)[C@@H](NC(=O)CNC(=O)[C@H](CCC(N)=O)NC(=O)[C@@H](CO)NC(=O)[C@@H](N)Cc1c[nH]cn1)[C@@H](C)O)[C@@H](C)O)[C@@H](C)CC)C(N)=O)C(=O)O` [(51)] registered an EC50 of 5.8 pM.

The compound `CCCCCCCCCCCCCCCC(=O)N[C@@H](CCC(=O)NCCCC[C@H](NC(=O)[C@H](CO)NC(=O)[C@@H]1CCCN1C(=O)[C@@H]1CCCN1C(=O)[C@@H]1CCCN1C(=O)[C@H](C)NC(=O)CNC(=O)[C@H](CO)NC(=O)[C@H](CO)NC(=O)[C@@H]1CCCN1C(=O)CNC(=O)CNC(=O)[C@H](CC(N)=O)NC(=O)[C@H](CCCCN)NC(=O)[C@H](CC(C)C)NC(=O)[C@H](Cc1c[nH]c2ccccc12)NC(=O)[C@H](CCC(=O)O)NC(=O)[C@@H](NC(=O)[C@H](Cc1ccccc1)NC(=O)[C@H](CC(=O)O)NC(=O)[C@H](CCC(N)=O)NC(=O)[C@H](C)NC(=O)[C@H](CCCNC(=N)N)NC(=O)[C@H](CCCNC(=N)N)NC(=O)[C@H](CO)NC(=O)[C@H](CCC(=O)O)NC(=O)[C@H](CCSC)NC(=O)[C@H](CCC(N)=O)NC(=O)[C@H](CCCCN)NC(=O)[C@H](CO)NC(=O)[C@H](CC(C)C)NC(=O)[C@H](CC(=O)O)NC(=O)[C@H](CO)NC(=O)[C@@H](NC(=O)[C@H](Cc1ccccc1)NC(=O)[C@@H](NC(=O)CNC(=O)[C@H](CCC(N)=O)NC(=O)[C@@H](CO)NC(=O)[C@@H](N)Cc1c[nH]cn1)[C@@H](C)O)[C@@H](C)O)[C@@H](C)CC)C(N)=O)C(=O)O` [(61)] (H-H[dS]QGTFTSDLSKQMESRRAQDFIEWLKNGGPSSGAPPPSK([γGlu-Palmitoyl])-NH2) showed an EC50 of 4.2 pM.

For `CCCCCCCCCCCCCCCC(=O)N[C@@H](CCC(=O)NCCCC[C@H](NC(=O)[C@@H]1CCCN1C(=O)[C@@H]1CCCN1C(=O)[C@@H]1CCCN1C(=O)[C@H](C)NC(=O)CNC(=O)[C@H](CO)NC(=O)[C@H](CO)NC(=O)[C@@H]1CCCN1C(=O)CNC(=O)CNC(=O)C(C)(C)NC(=O)[C@H](CCCCN)NC(=O)[C@H](CC(C)C)NC(=O)[C@H](Cc1c[nH]c2ccccc12)NC(=O)[C@H](CCC(=O)O)NC(=O)[C@@H](NC(=O)[C@H](Cc1ccccc1)NC(=O)[C@H](CC(=O)O)NC(=O)[C@H](CCC(N)=O)NC(=O)[C@H](C)NC(=O)[C@H](CCCNC(=N)N)NC(=O)[C@H](CCCNC(=N)N)NC(=O)[C@H](CO)NC(=O)[C@H](CCC(=O)O)NC(=O)[C@H](CCSC)NC(=O)[C@H](CCC(N)=O)NC(=O)[C@H](CCCCN)NC(=O)[C@H](CO)NC(=O)[C@H](CC(C)C)NC(=O)[C@H](CC(=O)O)NC(=O)[C@H](CO)NC(=O)[C@@H](NC(=O)[C@H](Cc1ccccc1)NC(=O)[C@@H](NC(=O)CNC(=O)[C@H](CCC(N)=O)NC(=O)[C@@H](CO)NC(=O)[C@@H](N)Cc1c[nH]cn1)[C@@H](C)O)[C@@H](C)O)[C@@H](C)CC)C(N)=O)C(=O)O` [(80)] (H-H[dS]QGTFTSDLSKQMESRRAQDFIEWLK[Aib]GGPSSGAPPPK([γGlu-Palmitoyl])-NH2), the EC50 is 10.8 pM.

For the compound `CCCCCCCCCCCCCCCC(=O)N[C@@H](CCC(=O)NCCCC[C@H](NC(=O)[C@H](CO)NC(=O)[C@@H]1CCCN1C(=O)[C@@H]1CCCN1C(=O)[C@@H]1CCCN1C(=O)[C@H](C)NC(=O)CNC(=O)[C@H](CO)NC(=O)[C@H](CO)NC(=O)[C@@H]1CCCN1C(=O)CNC(=O)CNC(=O)[C@H](CO)NC(=O)[C@H](CCCCN)NC(=O)[C@H](CC(C)C)NC(=O)[C@H](Cc1c[nH]c2ccccc12)NC(=O)[C@H](CCC(=O)O)NC(=O)[C@@H](NC(=O)[C@H](Cc1ccccc1)NC(=O)[C@H](CC(C)C)NC(=O)[C@H](CCCNC(=N)N)NC(=O)[C@H](C)NC(=O)[C@H](CCCNC(=N)N)NC(=O)[C@H](CCCNC(=N)N)NC(=O)[C@H](CO)NC(=O)[C@H](CCC(=O)O)NC(=O)[C@H](CCSC)NC(=O)[C@H](CCC(N)=O)NC(=O)[C@H](CCCCN)NC(=O)[C@H](CO)NC(=O)[C@H](CC(C)C)NC(=O)[C@H](CC(=O)O)NC(=O)[C@H](CO)NC(=O)[C@@H](NC(=O)[C@H](Cc1ccccc1)NC(=O)[C@@H](NC(=O)CNC(=O)[C@H](CCC(N)=O)NC(=O)[C@@H](CO)NC(=O)[C@@H](N)Cc1c[nH]cn1)[C@@H](C)O)[C@@H](C)O)[C@@H](C)CC)C(N)=O)C(=O)O` [(91)] (H-H[dS]QGTFTSDLSKQMESRRARLFIEWLKSGGPSSGAPPPSK([γGlu-Palmitoyl])-NH2), the EC50 stood at 6.7 pM.

The compound `CCCCCCCCCCCCCCCC(=O)N[C@@H](CCC(=O)NCCCC[C@H](NC(=O)[C@H](CO)NC(=O)[C@@H]1CCCN1C(=O)[C@@H]1CCCN1C(=O)[C@@H]1CCCN1C(=O)[C@H](C)NC(=O)CNC(=O)[C@H](CO)NC(=O)[C@H](CO)NC(=O)[C@@H]1CCCN1C(=O)CNC(=O)CNC(=O)[C@H](CC(N)=O)NC(=O)[C@H](CCCCN)NC(=O)[C@H](CC(C)C)NC(=O)[C@H](Cc1c[nH]c2ccccc12)NC(=O)[C@H](CCC(=O)O)NC(=O)[C@@H](NC(=O)[C@H](Cc1ccccc1)NC(=O)[C@H](CC(=O)O)NC(=O)[C@H](CCC(N)=O)NC(=O)[C@H](C)NC(=O)[C@H](CCCNC(=N)N)NC(=O)[C@H](CCCNC(=N)N)NC(=O)[C@H](CO)NC(=O)[C@H](CC(=O)O)NC(=O)[C@H](CCSC)NC(=O)[C@H](CCC(N)=O)NC(=O)[C@H](CCCCN)NC(=O)[C@H](CO)NC(=O)[C@H](CC(C)C)NC(=O)[C@H](CC(=O)O)NC(=O)[C@H](CO)NC(=O)[C@@H](NC(=O)[C@H](Cc1ccccc1)NC(=O)[C@@H](NC(=O)CNC(=O)[C@H](CCC(N)=O)NC(=O)C(C)(C)NC(=O)[C@@H](N)Cc1c[nH]cn1)[C@@H](C)O)[C@@H](C)O)[C@@H](C)CC)C(N)=O)C(=O)O` [(59)] (H-H[Aib]QGTFTSDLSKQMDSRRAQDFIEWLKNGGPSSGAPPPSK([γGlu-Palmitoyl])-NH2) came in with a concentration giving a half-maximal response (EC50) of 2.9 pM.

The compound `CCCCCCCCCCCCCCCC(=O)N[C@@H](CCC(=O)NCCCC[C@H](NC(=O)[C@H](CO)NC(=O)[C@@H]1CCCN1C(=O)[C@@H]1CCCN1C(=O)[C@@H]1CCCN1C(=O)[C@H](C)NC(=O)CNC(=O)[C@H](CO)NC(=O)[C@H](CO)NC(=O)[C@@H]1CCCN1C(=O)CNC(=O)CNC(=O)[C@H](C)NC(=O)[C@H](CCCCN)NC(=O)[C@H](CC(C)C)NC(=O)[C@H](Cc1c[nH]c2ccccc12)NC(=O)[C@H](CCC(=O)O)NC(=O)[C@@H](NC(=O)[C@H](Cc1ccccc1)NC(=O)[C@H](CC(C)C)NC(=O)[C@H](CCC(N)=O)NC(=O)[C@H](C)NC(=O)[C@H](C)NC(=O)C(C)(C)NC(=O)[C@H](CO)NC(=O)[C@H](CCC(=O)O)NC(=O)[C@H](CCSC)NC(=O)[C@H](CCC(N)=O)NC(=O)[C@H](CCCCN)NC(=O)[C@H](CO)NC(=O)[C@H](CC(C)C)NC(=O)[C@H](CC(=O)O)NC(=O)[C@H](CO)NC(=O)[C@@H](NC(=O)[C@H](Cc1ccccc1)NC(=O)[C@@H](NC(=O)CNC(=O)[C@H](CCC(N)=O)NC(=O)[C@@H](CO)NC(=O)[C@@H](N)Cc1c[nH]cn1)[C@@H](C)O)[C@@H](C)O)[C@@H](C)CC)C(N)=O)C(=O)O` [(112)] (H-H[dS]QGTFTSDLSKQMES[Aib]AAQLFIEWLKAGGPSSGAPPPSK([γGlu-Palmitoyl])-NH2) displayed an EC50 of 9.7 pM.

In turn, `CCCCCCCCCCCCCCCC(=O)N[C@@H](CCC(=O)NCCCC[C@H](NC(=O)[C@@H]1CCCN1C(=O)[C@@H]1CCCN1C(=O)[C@@H]1CCCN1C(=O)[C@H](C)NC(=O)CNC(=O)[C@H](CO)NC(=O)[C@H](CO)NC(=O)[C@@H]1CCCN1C(=O)CNC(=O)CNC(=O)[C@H](CC(N)=O)NC(=O)[C@H](CCCCN)NC(=O)[C@H](CC(C)C)NC(=O)[C@H](Cc1c[nH]c2ccccc12)NC(=O)[C@H](CCC(=O)O)NC(=O)[C@@H](NC(=O)[C@H](Cc1ccccc1)NC(=O)[C@H](CC(=O)O)NC(=O)[C@H](CCC(N)=O)NC(=O)[C@H](C)NC(=O)[C@H](CCCNC(=N)N)NC(=O)[C@H](CCCNC(=N)N)NC(=O)[C@H](CO)NC(=O)[C@H](CC(=O)O)NC(=O)[C@H](CCSC)NC(=O)[C@H](CCC(N)=O)NC(=O)[C@H](CCCCN)NC(=O)[C@H](CO)NC(=O)[C@H](CC(C)C)NC(=O)[C@H](CC(=O)O)NC(=O)[C@H](CO)NC(=O)[C@@H](NC(=O)[C@H](Cc1ccccc1)NC(=O)[C@@H](NC(=O)CNC(=O)[C@H](CCC(N)=O)NC(=O)[C@H](CO)NC(=O)[C@@H](N)Cc1c[nH]cn1)[C@@H](C)O)[C@@H](C)O)[C@@H](C)CC)C(N)=O)C(=O)O` [(6)] gave an EC50 of 3.1 pM.
